Results from PubChem BioAssay (NCI).
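Following 48 hours of exposure in 96-well plates, responses at five concentrations were used to interpolate endpoints linearly. Abbreviation: GI50, concentration required for 50% inhibition of growth. TGI marks complete inhibition of growth.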

Legend:
Assay in all cases: DTP human tumour cell line panel, 48 h
A498 renal = system: A498 renal
A549 NSCLC = system: A549 NSCLC
EKVX NSCLC = system: EKVX NSCLC
MCF7 breast = system: MCF7 breast
NCI-H522 lung = system: NCI-H522 lung
SNB-75 CNS = system: SNB-75 CNS
TK-10 renal = system: TK-10 renal

SMILES | TGI (A498 renal) [µM] | TGI (A549 NSCLC) [µM] | TGI (EKVX NSCLC) [µM] | TGI (MCF7 breast) [µM] | TGI (NCI-H522 lung) [µM] | TGI (SNB-75 CNS) [µM] | TGI (TK-10 renal) [µM] | GI50 (A498 renal) [µM] | GI50 (A549 NSCLC) [µM] | GI50 (MCF7 breast) [µM] | GI50 (NCI-H522 lung) [µM] | GI50 (SNB-75 CNS) [µM] | GI50 (TK-10 renal) [µM] | GI50 (EKVX NSCLC) [µM]
CCN(CC)C1Oc2cc3c(cc2C(c2cccc(OC)c2OC)C1C)OCO3 (configuration not stated) | 23.3 | 25.8 | 52.3 | 60.8 | 26.3 | 44.7 | 46.3 |  |  |  |  |  |  | 
COC(=O)C(Cc1c[nH]c2ccccc12)N=C1Nc2ccncc2S(=O)(=O)N1c1cccc(OC(C)C)c1 (configuration not stated) | > 100 | > 100 | > 100 | > 100 | > 100 | > 100 | > 100 |  |  |  |  |  |  | 
NNc1nnc(-c2nnc(NN)o2)o1 | > 10 | > 10 | > 10 | > 10 |  |  | > 10 |  |  |  |  |  |  | 
CN1CCN(c2ccc3c(c2)NCC(=O)N3)CC1 | > 100 | > 100 | > 100 |  | > 100 | > 100 | > 100 |  |  |  |  |  |  | 
C=C1CC[C@@H](C)[C@](C)(CCc2ccoc2)C/C=C\C=C/1C(=O)O | > 100 | > 100 | > 100 | > 100 |  | > 100 | > 100 |  |  |  |  |  |  | 
O=c1[nH]nc(-c2ccccc2)n1O | > 100 | > 100 | > 100 | > 100 | > 100 |  | > 100 |  |  |  |  |  |  | 
Cn1c(=O)n2n(c1=O)C(C)(C13CC4CC(CC(C4)C1)C3)C13CC4CC(CC1C4)CC23 (configuration not stated) | > 100 | > 100 | > 100 | > 100 |  | > 100 | > 100 |  |  |  |  |  |  | 
COc1ccc(NC(=O)C(=O)/C=C(\O)c2ccccc2)cc1 |  | > 10 | > 10 | > 10 |  | > 10 | > 10 |  |  |  |  |  |  | 
O=c1[nH]c(Nc2nc3ccccc3[nH]2)nc(O)c1Cc1ccccc1 | > 100 | > 100 | > 100 |  | > 100 | 86.4 | > 100 |  |  |  |  |  |  | 
O=c1[nH]c2nc3ccccc3c(=O)n2/c1=C/c1ccco1 |  | > 100 | > 100 | > 100 | > 100 | > 100 | > 100 |  |  |  |  |  |  | 
C=C(C)[C@@H]1CC[C@]2(C(=O)OC)CC[C@]3(C)[C@H](CC[C@@H]4[C@@]5(C)CC[C@H](O)C(C)(C)[C@@H]5CC[C@]43C)[C@@H]12 | 36.7 | 37.7 | 45.1 | 41.6 | 40.6 | 59 |  |  |  |  |  |  |  | 
COc1ccc(Nc2ccc([N+](=O)[O-])cc2[N+](=O)[O-])cc1CN(CCCl)CCCl | 4.94 | 30.7 |  | 13.3 | 4.29 | 13.4 | 95.3 | 1.88 | 4.43 | 1.49 | 1.76 | 2.39 | 3.76 | 
CC1CC(C#N)=C2NCCN2C1=O (configuration not stated) |  | > 100 | > 100 | 50.7 | > 100 | > 100 | > 100 |  |  |  |  |  |  | 
COc1cc(O)c2c(=O)c(OC)c(-c3ccc(OC)c(OC)c3)oc2c1 | > 100 | > 100 | > 100 | > 100 | 15 |  | > 100 |  |  | 45.8 |  |  |  | > 100
COc1cccc(C2c3cc4c(cc3OC3COC(=O)C32)OCO4)c1OC (configuration not stated) | > 100 | > 100 | > 100 | > 100 |  | > 100 | > 100 |  |  |  |  |  |  | 
CO/N=C1/c2sccc2[C@H](NC(=O)C(Cc2ccccc2)NC(=O)OC(C)(C)C)[C@@H]1O (some centres not stated) | > 100 | > 100 | > 100 | > 100 |  | > 100 | > 100 |  |  |  |  |  |  | 
c1ccc(CC2COC(c3cccs3)=N2)cc1 (configuration not stated) |  | > 100 | > 100 | > 31.6 | > 100 | > 100 | > 100 |  |  |  |  |  |  | 
COC(=O)Cc1c(-c2c(CC(=O)OC)c3ccccc3n2C2OC(COC(C)=O)C(OC(C)=O)C(OC(C)=O)C2OC(C)=O)[nH]c2ccccc12 (configuration not stated) | > 100 | > 100 | > 100 |  | > 100 |  | > 100 |  |  |  |  |  |  | 
Nc1nc2c(C(=O)O)c3ccc([N+](=O)[O-])cc3c(=O)n2c2ccccc12 | > 100 | > 100 | > 100 | 49.1 | 44.1 | 35.3 |  |  |  |  |  |  |  | 
O=C(O)c1ccccc1N=Nc1c(O)c(S(=O)(=O)O)cc2cc(S(=O)(=O)O)ccc12 | > 100 | > 100 | > 100 | > 100 |  | > 100 | > 100 |  |  |  |  |  |  | 
COc1cccc(/N=N/C(=NNC(=O)c2ccc(C)cc2)c2ccc(N(C)C)cc2)c1 |  | > 100 | > 100 | > 100 | > 100 |  | > 100 |  |  |  |  |  |  | 
Nc1ccc(Nc2cc(=O)[nH]c(=O)[nH]2)cc1Cl | > 100 | > 100 |  | > 100 | > 100 |  | > 100 |  |  |  |  |  |  | 
CC(C)(CCC(C)(C)N1OC1c1ccccc1)N1OC1c1ccccc1 (configuration not stated) | > 100 | > 100 |  | > 100 | 22.2 | > 100 | > 100 |  |  |  |  |  |  | 
O=C1Cc2c([nH]c3ccc(C(=O)O)cc23)-c2ccccc2N1 | > 100 | > 100 |  | > 100 |  |  | > 100 |  |  |  |  |  |  | 
